What follows are compounds tested against T1, recombinant human baculovirus-expressed GST-tagged FASN (Homo sapiens, UniProt P49327) (assay: FASN enzyme activity assay: fluorescence-based detection of CoA with CPM). Conditions: 5 nM FASN, 150 μM NADPH, 10 μM acetyl-CoA, 25 μM malonyl-CoA, 90 minutes incubation.
T1 construct: GST; host or cells: baculovirus expression system (insect cells implied)
Format: biochemical
How it was run: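 IC50 values were fitted (variable-slope sigmoid) to percent inhibition from CPM fluorescence (390/530 nm) reporting free CoA after a 30 min labelling step. The reaction ran 90 min after malonyl-CoA (25 μM) addition, with 10 μM acetyl-CoA, 150 μM NADPH, 5 nM recombinant GST-FASN, 50 mM HEPES pH 7.5 and 0.5% DMSO.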

T1 sequence (P49327 whole entry): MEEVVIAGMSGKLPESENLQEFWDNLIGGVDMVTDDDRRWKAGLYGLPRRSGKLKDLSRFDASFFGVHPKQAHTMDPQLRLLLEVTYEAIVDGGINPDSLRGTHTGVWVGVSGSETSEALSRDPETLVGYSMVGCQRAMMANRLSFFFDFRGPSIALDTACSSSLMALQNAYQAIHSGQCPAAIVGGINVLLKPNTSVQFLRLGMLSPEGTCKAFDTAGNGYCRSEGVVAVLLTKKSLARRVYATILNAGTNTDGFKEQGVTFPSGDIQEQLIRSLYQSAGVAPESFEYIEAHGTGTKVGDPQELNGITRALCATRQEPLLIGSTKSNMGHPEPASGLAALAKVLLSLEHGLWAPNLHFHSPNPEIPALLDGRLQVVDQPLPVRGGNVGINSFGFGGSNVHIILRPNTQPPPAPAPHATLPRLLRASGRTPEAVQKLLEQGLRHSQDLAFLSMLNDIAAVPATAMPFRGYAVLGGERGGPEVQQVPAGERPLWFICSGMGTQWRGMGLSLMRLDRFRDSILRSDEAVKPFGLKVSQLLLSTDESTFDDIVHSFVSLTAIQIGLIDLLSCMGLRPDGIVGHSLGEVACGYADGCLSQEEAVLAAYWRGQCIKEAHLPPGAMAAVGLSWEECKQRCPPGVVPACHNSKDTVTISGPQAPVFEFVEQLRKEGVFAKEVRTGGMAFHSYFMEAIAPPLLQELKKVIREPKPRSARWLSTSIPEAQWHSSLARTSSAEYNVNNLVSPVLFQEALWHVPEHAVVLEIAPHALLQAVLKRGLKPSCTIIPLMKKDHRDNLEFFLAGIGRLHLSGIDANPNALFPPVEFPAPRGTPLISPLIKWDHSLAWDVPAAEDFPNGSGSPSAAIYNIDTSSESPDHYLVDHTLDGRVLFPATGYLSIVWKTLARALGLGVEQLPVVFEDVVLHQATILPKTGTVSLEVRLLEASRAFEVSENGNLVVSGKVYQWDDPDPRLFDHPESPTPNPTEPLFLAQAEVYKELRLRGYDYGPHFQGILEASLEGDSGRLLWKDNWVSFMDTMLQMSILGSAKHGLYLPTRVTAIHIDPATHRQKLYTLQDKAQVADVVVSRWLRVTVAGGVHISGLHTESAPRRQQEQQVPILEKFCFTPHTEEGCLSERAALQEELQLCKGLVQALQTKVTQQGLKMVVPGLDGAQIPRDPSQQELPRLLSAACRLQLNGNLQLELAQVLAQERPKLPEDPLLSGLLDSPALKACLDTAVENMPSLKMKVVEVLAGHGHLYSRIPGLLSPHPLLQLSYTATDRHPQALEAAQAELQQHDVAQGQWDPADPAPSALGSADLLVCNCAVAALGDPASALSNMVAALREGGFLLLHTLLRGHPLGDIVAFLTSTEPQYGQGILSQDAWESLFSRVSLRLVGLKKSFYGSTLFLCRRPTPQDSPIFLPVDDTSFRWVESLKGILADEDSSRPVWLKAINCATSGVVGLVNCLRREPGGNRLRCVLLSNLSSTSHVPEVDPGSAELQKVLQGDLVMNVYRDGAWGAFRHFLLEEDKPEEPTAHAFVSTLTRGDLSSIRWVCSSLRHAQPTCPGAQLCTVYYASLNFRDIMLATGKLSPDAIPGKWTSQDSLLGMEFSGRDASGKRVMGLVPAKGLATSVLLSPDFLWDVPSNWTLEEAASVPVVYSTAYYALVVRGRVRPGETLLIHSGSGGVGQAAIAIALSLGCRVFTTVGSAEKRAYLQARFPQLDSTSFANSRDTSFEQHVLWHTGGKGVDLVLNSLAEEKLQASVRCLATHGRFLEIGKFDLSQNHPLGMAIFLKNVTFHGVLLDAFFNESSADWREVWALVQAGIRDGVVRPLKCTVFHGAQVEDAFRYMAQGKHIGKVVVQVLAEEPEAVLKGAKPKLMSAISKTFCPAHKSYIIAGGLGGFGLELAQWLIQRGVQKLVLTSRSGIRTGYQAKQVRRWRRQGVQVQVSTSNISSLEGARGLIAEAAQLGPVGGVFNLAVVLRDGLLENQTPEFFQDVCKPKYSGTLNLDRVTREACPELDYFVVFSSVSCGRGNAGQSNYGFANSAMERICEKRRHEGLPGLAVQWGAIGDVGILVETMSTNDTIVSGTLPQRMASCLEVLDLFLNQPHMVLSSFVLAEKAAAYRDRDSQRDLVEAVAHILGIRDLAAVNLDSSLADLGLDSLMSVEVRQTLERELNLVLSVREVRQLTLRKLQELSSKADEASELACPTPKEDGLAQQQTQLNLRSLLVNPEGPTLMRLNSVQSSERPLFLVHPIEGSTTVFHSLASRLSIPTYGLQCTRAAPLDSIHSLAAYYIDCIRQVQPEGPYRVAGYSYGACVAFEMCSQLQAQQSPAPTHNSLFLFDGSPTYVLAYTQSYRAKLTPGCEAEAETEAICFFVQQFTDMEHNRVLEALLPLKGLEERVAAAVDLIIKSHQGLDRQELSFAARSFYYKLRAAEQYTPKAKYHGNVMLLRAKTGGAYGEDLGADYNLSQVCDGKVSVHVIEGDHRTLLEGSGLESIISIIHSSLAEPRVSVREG

Row | IC50 [nM] | SMILES
1 | 1 to 99 | CCC(=O)N1CCC(F)(C(OCCN2CCOCC2)c2ccc(-c3ccc4cccnc4c3C)cc2)CC1 (stereo not shown) [Example 227, 1-{4-Fluoro-4-[[4-(8-methyl-quinolin-7-yl)-phenyl]-(2-morpholin-4-yl-ethoxy)-methyl]-piperidin-1-yl}-propan-1-one]
2 | 1 to 99 | CCC(=O)N1CCC(F)(C(OCCOC)c2ccc(-c3ccc4cccnc4c3C)cc2)CC1 (stereo not shown) [Example 226, 1-(4-Fluoro-4-{(2-methoxy-ethoxy)-[4-(8-methyl-quinolin-7-yl)-phenyl]-methyl}-piperidin-1-yl)-propan-1-one]
3 | 1 to 99 | CCC(=O)N1CCC(F)(Cc2ccc(-c3cnc4ccccc4c3)cc2)CC1 [Example 161, 1-(4-fluoro-4-(4-(quinolin-3-yl)benzyl)piperidin-1-yl)propan-1-one]
4 | 1 to 99 | Cc1c(-c2ccc(CC3(F)CCN(C(=O)[C@H]4CCCO4)CC3)cc2)ccc2cccnc12 [Example 199, (R)-(4-fluoro-4-(4-(8-methylquinolin-7-yl)benzyl)piperidin-1-yl)(tetrahydrofuran-2-yl)methanone]
5 | 1 to 99 | CC(c1ccc(-c2ccc3cccnc3c2Cl)cc1)C1CCN(C(=O)C2CC2)CC1 (stereo not shown) [Example 73, (4-{1-[4-(8-Chloroquinolin-7-yl)-phenyl]-ethyl}-piperidin-1-yl)-cyclopropylmethanone]

The remaining lines, values behind:

Row | SMILES | IC50 [nM]
6 | COc1c(-c2ccc(CC3CCN(C(=O)[C@H]4CCCO4)CC3)cc2)ccc2cccnc12 [Example 34, {4-[4-(8-Methoxyquinolin-7-yl)-benzyl]-piperidin-1-yl}-(R)-tetrahydrofuran-2-yl-methanone] | 1 to 99
7 | CCC(=O)N1CCC(C(C)(OC)c2ccc(-c3ccc4cccnc4c3)cc2)CC1 (stereo not shown) [Example 212, 1-{4-[1-Methoxy-1-(4-quinolin-7-yl-phenyl)-ethyl]-piperidin-1-yl}-propan-1-one] | 1 to 99
8 | CCC(=O)N1CCC(F)(Cc2ccc(-c3ccc4cnccc4c3)cc2)CC1 [Example 165, 1-(4-fluoro-4-(4-(isoquinolin-6-yl)benzyl)piperidin-1-yl)propan-1-one] | 1 to 99
9 | O=C(C1CC1)N1CCC(C2(c3ccc(-c4ccc5cccnc5c4)cc3)OCCCO2)CC1 [Example 122, Cyclopropyl-{4-[2-(4-quinolin-7-yl-phenyl)-1,3-dioxinan-2-yl]-piperidin-1-yl}-methanone] | 1000 to 10000
10 | Cc1c(-c2ccc(CC3CCN(C(=O)[C@H]4CCCO4)CC3)cc2)cnc2ccccc12 [Example 15, {4-[4-(4-Methylquinolin-3-yl)-benzyl]-piperidin-1-yl}-(R)-tetrahydrofuran-2-yl-methanone] | 1 to 99
11 | CCC(=O)N1CC=C(Cc2ccc(-c3cnc4ccccc4c3C)cc2)CC1 [Example 196, 1-(4-(4-(4-Methylquinolin-3-yl)benzyl)-5,6-dihydropyridin-1(2H)-yl)propan-1-one] | 1 to 99
12 | CC(c1ccc(-c2cnc3ccccc3c2)cc1)C1CCN(C(=O)C2CC2)CC1 (stereo not shown) [Example 58, Cyclopropyl-{4-[1-(4-quinolin-3-yl-phenyl)-ethyl]-piperidin-1-yl}-methanone] | 1 to 99
13 | CC(c1ccc(-c2cnc3ccccc3c2)cc1)C1CCN(C=O)CC1 (stereo not shown) [Example 60, 4-[1-(4-Quinolin-3-yl-phenyl)-ethyl]-piperidine-1-carbaldehyde] | 1000 to 10000
14 | CCC(=O)N1CCC(C(=O)c2ccc(-c3cnc4ccccc4c3)cc2F)CC1 [Example 143, 1-[4-(2-Fluoro-4-quinolin-3-yl-benzoyl)piperidin-1-yl]propan-1-one] | 1 to 99
15 | O=C([C@H]1CCCO1)N1CC=C(Cc2ccc(-c3cnc4ccccc4c3Cl)cc2)CC1 [Example 202, (R)-(4-(4-(4-chloroquinolin-3-yl)benzyl)-3,6-dihydropyridin-1(2H)-yl)(tetrahydrofuran-2-yl)methanone] | 1 to 99
16 | CCCC(=O)N1CCC(C2(c3ccc(-c4ccc5cccnc5c4)cc3)OCCO2)CC1 [Example 113, 1-{4-[2-(4-Quinolin-7-yl-phenyl)-1,3-dioxolan-2-yl]-piperidin-1-yl}-butan-1-one] | 1000 to 10000

— patent publication US11878966B2, “Substituted 4-benzyl and 4-benzoyl piperidine derivates” (89BIO LTD, priority 2015, dated 2024)
